These results are taken from patent publication US4521408A, “Antibiotics-859A and production thereof” (priority 1982, dated 1985).

What all share (assay type): cell-based
Assay [1] concerns Pseudomonas clinical isolate B145. As to the kind of experiment: Comparative lethality in agar dilution test, isolate B145. The method, then:
(§1) 859A2, carbenicillin, and gentamicin were compared in agar dilution, surface-inoculated assays at the minimum bactericidal concentration (MBC), and at 1/2 and 1/4 of the MBC, vs four clinical isolates of Pseudomonas.
(§2) Clinical isolates were supplied on nutrient agar-yeast extract slants. Strains B145 and B184 were reported as non-lactamase-containing strains whereas strains B126 and B189 contained lactamase.
(§3) A loopful of cells of each culture was transferred to 10 ml nutrient broth-yeast (NBY) extract and incubated for 16 hours at 37° C. on the shaker. The inocula were adjusted to O.D.=0.22 at 660 nm with NBY and further diluted with NBY to 1:250,000. One tenth (0.1) ml of the diluted cell suspension was added to plates containing 10 ml of Brain Heart Infusion Agar and spread uniformly over the surface with a sterile glass "hockey stick". Stock solutions of antibiotics at 10 mg/ml were added to 45° C. agar in appropriate amounts. […] After overnight incubation of plates at 37° C., a visual count of colonies was made.
(In general: In agar dilution the substance is mixed into plates at graded concentrations.)

Assay [2] relates to Pseudomonas clinical isolate B184. Put plainly: Comparative lethality in agar dilution test, isolate B184. The method, then:
as §1, §2, §3

In assay [3] the test system is Pseudomonas clinical isolate B189. As to the kind of experiment: Comparative lethality in agar dilution test, isolate B189. The method, then:
as §1, §2, §3

Assay [4] relates to Pseudomonas clinical isolate B126. As to the kind of experiment: Comparative lethality in agar dilution test, isolate B126. As for the experimental part:
as §1, §2, §3

For the molecule `CC1(C)S[C@@H]2[C@H](NC(=O)C(C(=O)O)c3ccccc3)C(=O)N2[C@H]1C(=O)O` (stereo partly drawn) [Carbenicillin, carbenicillin], the “# of Colonies” value in assay [1] (15.7 μg/ml) amounted to 368; in assay [1] (31.3 μg/ml) it was 335; in assay [1] (62.5 μg/ml), 0; in assay [2] (15.7 μg/ml), 75; in assay [2] (31.3 μg/ml) it was 100; in assay [2] (62.5 μg/ml) it was 0. The “# of Colonies” value in assay [3] (31.3 μg/ml) is given as 333; in assay [3] (62.5 μg/ml) it was 263; in assay [3] (125 μg/ml) it was 0; in assay [4] (125 μg/ml), 68; in assay [4] (250 μg/ml), 28; in assay [4] (500 μg/ml) it was 0.
Consider gentamicin, for which the “# of Colonies” value in assay [1] (12.5 μg/ml) stood at 233; in assay [1] (25 μg/ml) it was 121; in assay [1] (50 μg/ml) it was 0; in assay [2] (0.39 μg/ml), 79; in assay [2] (0.79 μg/ml) it was 19; in assay [2] (1.56 μg/ml), 0. The “# of Colonies” value in assay [3] (0.78 μg/ml) was found to be 278; in assay [3] (1.56 μg/ml) it was 53; in assay [3] (3.12 μg/ml) it was 0; in assay [4] (0.39 μg/ml) it was 49; in assay [4] (0.78 μg/ml), 7; in assay [4] (1.56 μg/ml), 0.
